Data: US9273058B2 (BRISTOL-MYERS SQUIBB COMPANY, priority 2013, dated 2016)

Biological target: CK1ε (Homo sapiens, UniProt P49674)
Test: CK1ε kinase assay (Caliper LabChip electrophoretic separation of fluoresceinated peptide substrate and product)
Type: biochemical
Conditions: 200 pM CK1ε, 50 μM ATP, 1.5 μM peptide, 22 hours at room temperature; read-out: CK1ε IC50 range
Procedure: (§1) CK1ε and CK1δ Kinase Assays
(§2) The kinase assay was performed in V-bottom 384-well plates. […] The reaction was incubated at room temperature for 22 hours and terminated by adding 45 μl of 35 mM EDTA to each sample. The reaction mixture was analyzed on the Caliper LABCHIP®3000 (Caliper, Hopkinton, Mass.) by electrophoretic separation of the unphosphorylated substrate and phosphorylated product. […] Compounds were dissolved at 10 mM in dimethylsulfoxide (DMSO) and evaluated at eleven concentrations. IC50 values were derived by non-linear regression analysis.

CK1ε, sequence (P49674 whole entry): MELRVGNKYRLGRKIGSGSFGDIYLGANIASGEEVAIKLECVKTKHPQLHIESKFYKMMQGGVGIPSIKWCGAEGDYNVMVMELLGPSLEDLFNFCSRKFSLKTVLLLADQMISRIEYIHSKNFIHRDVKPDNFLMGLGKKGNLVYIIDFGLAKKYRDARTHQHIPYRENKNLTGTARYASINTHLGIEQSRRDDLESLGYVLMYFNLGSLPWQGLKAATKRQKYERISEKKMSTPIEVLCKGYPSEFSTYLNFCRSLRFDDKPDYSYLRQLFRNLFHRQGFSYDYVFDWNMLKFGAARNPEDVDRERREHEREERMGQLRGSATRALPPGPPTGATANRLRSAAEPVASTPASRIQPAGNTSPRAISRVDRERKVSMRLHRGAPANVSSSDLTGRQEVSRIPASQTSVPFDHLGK

Compound	IC50 [nM]
NC(=O)c1c(-c2ccc(F)cc2)nn2c1CN(C(=O)NC1CCCCC1)CC2 [Compound 3, N^5-Cyclohexyl-2-(4-fluorophenyl)-6,7-dihydropyrazolo[1,5-a]pyrazine-3,5(4H)-dicarboxamide]	10 to 100
CC(C)(NC(=O)N1CCn2nc(-c3cccc(F)c3)c(C(N)=O)c2C1)c1ccccc1 [Compound 25, 2-(3-Fluorophenyl)-N^5-(2-phenylpropan-2-yl)-6,7-dihydropyrazolo[1,5-a]pyrazine-3,5(4H)-dicarboxamide]	10 to 100
NC(=O)c1c(-c2cccc(F)c2)nn2c1CN(C(=O)Nc1cccnc1)CC2 [Compound 68, 2-(3-Fluorophenyl)-N^5-(pyridin-3-yl)-6,7-dihydropyrazolo[1,5-a]pyrazine-3,5(4H)-dicarboxamide]	10 to 100
CC(C)(C)NC(=O)N1Cc2c(C(N)=O)c(-c3ccc(F)c(Cl)c3)nn2CC12CC2 [Compound 350, N^5′-(tert-Butyl)-2′-(3-chloro-4-fluorophenyl)-4′H-spiro[cyclopropane-1,6′-pyrazolo[1,5-a]pyrazine]-3′,5′(7′H)-dicarboxamide]	100 to 2000
CC(C)(C)NC(=O)N1CCn2nc(-c3cc(F)cc(F)c3)c(C(N)=O)c2C1 [Compound 105, N^5-(tert-Butyl)-2-(3,5-difluorophenyl)-6,7-dihydropyrazolo[1,5-a] pyrazine-3,5(4H)-dicarboxamide]	10 to 100
NC(=O)c1c(-c2cccc(F)c2)nn2c1CN(C(=O)Nc1ccc(F)nc1)CC2 [Compound 87, 2-(3-Fluorophenyl)-N^5-(6-fluoropyridin-3-yl)-6,7-dihydropyrazolo[1,5-a]pyrazine-3,5(4H)-dicarboxamide]	10 to 100
CCC1CN(C(=O)NC(C)(C)C)Cc2c(C(N)=O)c(-c3ccc(F)c(Cl)c3)nn21 (single isomer, unassigned) [Compound A98, N^5-(tert-Butyl)-2-(3-chloro-4-fluorophenyl)-7-ethyl-6,7-dihydropyrazolo[1,5-a]pyrazine-3,5(4H)-dicarboxamide]	0.01 to 10
COc1ccc(NC(=O)N2CCn3nc(-c4cccc(F)c4)c(C(N)=O)c3C2)cc1OC [Compound 66, N^5-(3,4-Dimethoxyphenyl)-2-(3-fluorophenyl)-6,7-dihydropyrazolo[1,5-a]pyrazine-3,5(4H)-dicarboxamide]	10 to 100
COc1cc(F)cc(-c2nn3c(c2C(N)=O)CN(C(=O)NC(C)(C)C)CC3)c1 [Compound 137, N^5-(tert-Butyl)-2-(3-fluoro-5-methoxyphenyl)-6,7-dihydropyrazolo[1,5-a] pyrazine-3,5(4H)-dicarboxamide]	10 to 100
NC(=O)c1c(-c2cccc(F)c2)nn2c1CN(C(=O)NCc1ccc(Cl)c(Cl)c1)CC2 [Compound 46, N^5-(3,4-Dichlorobenzyl)-2-(3-fluorophenyl)-6,7-dihydropyrazolo[1,5-a]pyrazine-3,5(4H)-dicarboxamide]	10 to 100
NC(=O)c1c(-c2cccc(F)c2)nn2c1CN(C(=O)Nc1ccc(OC(F)F)cc1)CC2 [Compound 89, N^5-(4-(Difluoromethoxy)phenyl)-2-(3-fluorophenyl)-6,7-dihydropyrazolo[1,5-a]pyrazine-3,5(4H)-dicarboxamide]	10 to 100
CC(=O)N1CCC(NC(=O)N2CCn3nc(-c4cccc(F)c4)c(C(N)=O)c3C2)CC1 [Compound 97]	10 to 100
NC(=O)c1c(-c2cccc(F)c2)nn2c1CN(C(=O)Nc1cncnc1)CC2 [Compound 84, 2-(3-Fluorophenyl)-N^5-(pyrimidin-5-yl)-6,7-dihydropyrazolo[1,5-a]pyrazine-3,5(4H)-dicarboxamide]	10 to 100
NC(=O)c1c(-c2cccc(F)c2)nn2c1CN(C(=O)Nc1ccnc(Cl)c1)CC2 [Compound 90, N^5-(2-Chloropyridin-4-yl)-2-(3-fluorophenyl)-6,7-dihydropyrazolo[1,5-a]pyrazine-3,5(4H)-dicarboxamide]	10 to 100
Cc1ccc(NC(=O)N2CCn3nc(-c4cccc(F)c4)c(C(N)=O)c3C2)cn1 [Compound 86, 2-(3-Fluorophenyl)-N^5-(6-methylpyridin-3-yl)-6,7-dihydropyrazolo[1,5-a]pyrazine-3,5(4H)-dicarboxamide]	10 to 100
NC(=O)c1c(-c2cccc(F)c2)nn2c1CN(C(=O)NC1CCN(S(=O)(=O)C3CC3)CC1)CC2 [Compound 102, N^5-(1-(Cyclopropylsulfonyl)piperidin-4-yl)-2-(3-fluorophenyl)-6,7-dihydropyrazolo[1,5-a]pyrazine-3,5(4H)-dicarboxamide]	10 to 100
NC(=O)c1c(-c2cccc(F)c2)nn2c1CN(C(=O)Nc1ccc(F)c(F)c1)CC2 [Compound 29, N^5-(3,4-Difluorophenyl)-2-(3-fluorophenyl)-6,7-dihydropyrazolo[1,5-a]pyrazine-3,5(4H)-dicarboxamide]	10 to 100
CC(C)(NC(=O)N1CCn2nc(-c3cccc(F)c3)c(C(N)=O)c2C1)c1ccc(F)cc1 [Compound 17, 2-(3-Fluorophenyl)-N^5-(2-(4-fluorophenyl)propan-2-yl)-6,7-dihydropyrazolo[1,5-a]pyrazine-3,5(4H)-dicarboxamide]	10 to 100
CSc1cccc(-c2nn3c(c2C(N)=O)CN(C(=O)NC(C)(C)C)CC3)c1 [Compound 150, N^5-(tert-Butyl)-2-(3-(methylthio)phenyl)-6,7-dihydropyrazolo[1,5-a] pyrazine-3,5(4H)-dicarboxamide]	10 to 100
NC(=O)c1c(-c2cccc(F)c2)nn2c1CN(C(=O)Nc1cc(Cl)ccc1F)CC2 [Compound 33, N^5-(5-Chloro-2-fluorophenyl)-2-(3-fluorophenyl)-6,7-dihydropyrazolo[1,5-a]pyrazine-3,5(4H)-dicarboxamide]	10 to 100

Biological target: CK1δ (Homo sapiens, UniProt P48730)
Sequence (P48730 whole entry): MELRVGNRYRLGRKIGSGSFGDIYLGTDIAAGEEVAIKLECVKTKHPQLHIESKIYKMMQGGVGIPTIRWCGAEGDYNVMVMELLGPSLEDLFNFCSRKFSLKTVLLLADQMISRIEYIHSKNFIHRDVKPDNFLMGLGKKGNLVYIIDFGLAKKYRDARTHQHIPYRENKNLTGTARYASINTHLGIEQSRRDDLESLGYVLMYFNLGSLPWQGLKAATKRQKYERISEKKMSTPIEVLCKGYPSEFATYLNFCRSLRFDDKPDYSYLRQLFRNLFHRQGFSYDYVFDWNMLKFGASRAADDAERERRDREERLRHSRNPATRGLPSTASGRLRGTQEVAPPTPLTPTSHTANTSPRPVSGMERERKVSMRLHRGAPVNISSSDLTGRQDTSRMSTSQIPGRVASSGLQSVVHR
Test: CK1δ kinase assay (Caliper LabChip electrophoretic separation of fluoresceinated peptide substrate and product)
Type: biochemical
Conditions: 200 pM CK1δ, 50 μM ATP, 1.5 μM peptide, 22 hours at room temperature; read-out: CK1δ IC50 range
Procedure: as §1, §2

Compound	IC50 [nM]
NC(=O)c1c(-c2ccc(F)c(Cl)c2)nn2c1CN(C(=O)NC13C4C5C6C4C1C6C53)CC2 (stereo not drawn) [Compound A72, N^5-(Cuban-1-yl)-2-(3-chloro-4-fluorophenyl)-6,7-dihydropyrazolo[1,5-a]pyrazine-3,5(4H)-dicarboxamide]	0.01 to 10
N#Cc1ccc(C23CCC(NC(=O)N4CCn5nc(-c6cccc(Cl)c6)c(C(N)=O)c5C4)(CC2)CC3)cc1 [Compound A74, 2-(3-Chlorophenyl)-N^5-(4-(4-cyanophenyl)bicyclo[2.2.2]octan-1-yl)-6,7-dihydropyrazolo[1,5-a]pyrazine-3,5(4H)-dicarboxamide]	0.01 to 10
NC(=O)c1c(-c2ccc(F)c(Cl)c2)nn2c1CN(C(=O)N[C@H]1C[C@@H]3[C@H](C1)C3(F)F)CC2 [Compound 198]	0.01 to 10
NC(=O)c1c(-c2ccc(F)c(Cl)c2)nn2c1CN(C(=O)N[C@@H]1CC[C@@H]1C(F)F)CC2 [Compound 238, 2-(3-Chloro-4-fluorophenyl)-N^5-((1R,2S)-2-(difluoromethyl)cyclobutyl)-6,7-dihydropyrazolo[1,5-a]pyrazine-3,5(4H)-dicarboxamide]	0.01 to 10
N#CC1(NC(=O)N2CCn3nc(-c4cccc(Cl)c4)c(C(N)=O)c3C2)CC1 [Compound A45, 2-(3-Chlorophenyl)-N^5-(1-cyanocyclopropyl)-6,7-dihydropyrazolo[1,5-a]pyrazine-3,5(4H)-dicarboxamide]	0.01 to 10
CC(CF)(CF)NC(=O)N1CCn2nc(-c3cccc(Cl)c3)c(C(N)=O)c2C1 [Compound 211, 2-(3-Chlorophenyl)-N^5-(1,3-difluoro-2-methylpropan-2-yl)-6,7-dihydropyrazolo[1,5-a]pyrazine-3,5(4H)-dicarboxamide]	0.01 to 10
CC1(CNC(=O)N2CCn3nc(-c4ccc(Cl)c(Cl)c4)c(C(N)=O)c3C2)CC(F)(F)C1 [Compound 231, 2-(3,4-Dichlorophenyl)-N^5-((3,3-difluoro-1-methylcyclobutyl)methyl)-6,7-dihydropyrazolo[1,5-a] pyrazine-3,5(4H)-dicarboxamide]	0.01 to 10
Cc1cc(C)cc(-c2nn3c(c2C(N)=O)CN(C(=O)NC(C)(C)C)CC3)c1 [Compound 128, N^5-(tert-Butyl)-2-(3,5-dimethylphenyl)-6,7-dihydropyrazolo[1,5-a] pyrazine-3,5(4H)-dicarboxamide]	10 to 100
NC(=O)c1c(-c2cccc(Cl)c2)nn2c1CN(C(=O)NC1CC(C(F)F)C1)CC2 (stereo not drawn) [Compound 257, 2-(3-Chlorophenyl)-N^5-(3-(difluoromethyl)cyclobutyl)-6,7-dihydropyrazolo[1,5-a]pyrazine-3,5(4H)-dicarboxamide]	0.01 to 10
N#CC12C3C4C1C1C2C3C41NC(=O)N1CCn2nc(-c3ccc(F)c(Cl)c3)c(C(N)=O)c2C1 (stereo not drawn) [Compound A70, N^5-(4-Cyanocuban-1-yl)-2-(3-chloro-4-fluorophenyl)-6,7-dihydropyrazolo[1,5-a]pyrazine-3,5(4H)-dicarboxamide]	0.01 to 10
NC(=O)c1c(-c2ccc(F)c(Cl)c2)nn2c1CN(C(=O)NC1CC(C(F)F)C1)CC2 (single isomer, unassigned) [Compound 253, 2-(3-Chloro-4-fluorophenyl)-N^5-(3-(difluoromethyl)cyclobutyl)-6,7-dihydropyrazolo[1,5-a]pyrazine-3,5(4H)-dicarboxamide]	0.01 to 10
NC(=O)c1c(-c2ccc(Cl)c(Cl)c2)nn2c1CN(C(=O)N[C@@H]1CC[C@@H]1C(F)F)CC2 [Compound 240, 2-(3,4-Dichlorophenyl)-N^5-((1R,2S)-2-(difluoromethyl)cyclobutyl)-6,7-dihydropyrazolo[1,5-a] pyrazine-3,5(4H)-dicarboxamide]	0.01 to 10
